# Test results published in patent US20230226152A1, “INTERLEUKIN-2 POLYPEPTIDE CONJUGATES AND METHODS OF USE THEREOF” (Ambrx, Inc., priority 2020, published 2023).
# System: CTLL-2 cells
# Assay: CTLL-2 cell expansion / proliferation (binding) assay
# Assay type: cell-based
# Protocol: T cell expansion test of IL-2 variants in CTLL-2 cells. CTLL-2 cell expansion assay was performed using transiently expressed F42 variant supernatant from transfected engineered CHO cells. […] Cell proliferation was performed using Cell Titer Glo (Promega, WI). Luminescent signal was read on TECAN genios pro. […] A general procedure for studying the IL-2 variants of the present invention is shown in the following:
# Utilizing a CTLL-2 cell expansion assay as disclosed in the Examples, 20 different IL-2 variants including 16 originally selected sites (wild type included) and 4 additional sites (K32, K48, K49, K76) known in the art were screened (Charych, D., et al., PLoS One, 12(7): p. e0179431, 2017). […] Identified variants were further analyzed for their binding capabilities after PEGylation.
substance,measurement,setting,value
"F42: IL-2 with unnatural amino acid (pAF) at F42, SEQ ID NO: 9",EC50,"transiently expressed variant supernatant from engineered CHO cells, Cell Titer Glo",around 0.24 ng/mL
same,function retained compared to wild type control,wild type IL-2 = 100% proliferation,95%
